Measurements: patent publication US6946458B2, “N-thiolated beta-lactams: novel antibacterial agents for methicillin-resistant Staphylococcus aureus” (University of South Florida, priority 1999, dated 2005)
Converted amounts (≈) assume the structure as drawn. “Also recorded” adds a separate entry of the source. Like-named read-outs stand apart in the source and are kept apart here.

How the values were obtained:
[1] = test system: cultures of S. aureus and MRSA; assay: electron microscopy of cell morphology; format: cell-based, Staphylococcus aureus; details: for cell morphology: Example 1, electron microscopy, high magnification
Text: The structure-bioactivity patterns observed for these N-thiolated lactams are highly atypical for a β-lactam antibiotic. The compounds are lipohilic and devoid of the typical acidic ring functionality required for recognition by the penicillin binding proteins. The implication that the lactams set forth in FIGS. 1A-1I are not acting in the same manner or on the same enzymes as the traditional β-lactam drugs is supported by electron microscopy experiments, which confirm that cell morphology is unaffected by the lactam of FIG. 1D (Greenwood, D. et al. Science, 1969, 163:1076).
(§1) In fact, only small isolated colonies of surviving cells can be found, all of which appear perfectly normal in size, shape, smoothness, and clustering behavior. […] Pulse radiolabeling experiments indicate that the lactam of FIG. 1D blocks the bacterial uptake of ^3H-uridine and ^3H-leucine at low (MIC) levels (Lim, D. V. et al. Microbiology, 1977, 33:328; Champney, W. S. and C. G. Tober Antimicrob. Agents and Chemother., 2000, 44:1413).
Light microscopy and scanning electron microscopy experiments have enabled us to look for cell wall damage in cultures of S. aureus and MRSA grown in the presence of N-methylthio lactam (FIG. 11F) over a range of different concentrations and cell growth conditions. […] Those cells that survive the treatment appear normal (coccal) and fully mature.

MRSA cells = assay: light microscopy after Gram staining; format: cell-based, Staphylococcus aureus; details: for cells Gram-stained purple: Example 5, MRSA cells grown in presence of the substance; for coloration upon Gram staining: Example 1
Text: as §1
(FIGS. 14A-14C) S. aureus is a Gram-positive microorganism, and thus reacts with Gram stain to produce a purple coloration due to binding of the stain to the peptidoglycan. 100% of MRSA cells grown either in the absence or presence of the lactam of FIG. 11F take on a purple color when Gram stained (top and center images, next page). In contrast, for MRSA cells treated with penicillin G or vancomycin (cell wall synthesis inhibitors), only about 30% of the cells are Gram-stained purple, with the remainder of the cells appearing pink (bottom image, next page) due to morphologically altered walls. This is strong evidence that the N-methylthio lactams are not affecting late stage events in cell wall biosynthesis.

MRSA USF655 = assay: Kirby-Bauer agar disk diffusion; format: cell-based, Staphylococcus aureus; set-up: Kirby-Bauer Disc Diffusion Test Results: unit not given here; details: for Kirby-Bauer Disc Diffusion Test Results: Table 5; for zone of growth inhibition, average diameter: Table 1, 6-mm disks, 20 μg test compound, 24 h, triplicate; for zone of inhibition at 20 µg/disc: Staphylococcus aureus, MRSA
Method in brief: (§2)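 Zones of inhibition, in mm and averaged over three runs, are measured after 24 h around 6-mm disks dosed with 20 μg compound on agar lawns of β-lactamase-producing MRSA.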

MRSA USF659 = assay: Kirby-Bauer agar disk diffusion; format: cell-based, Staphylococcus aureus; set-up: Kirby-Bauer Disc Diffusion Test Results: unit not given here; details: for Kirby-Bauer Disc Diffusion Test Results: Table 5, beta-lactamase producing strain; for zone of growth inhibition, average diameter: Table 1, 6-mm disks, 20 μg test compound, 24 h, triplicate; for zone of inhibition at 20 µg/disc: Staphylococcus aureus, MRSA
Method in brief: as §2

MRSA USF654 = assay: Kirby-Bauer agar disk diffusion; format: cell-based, Staphylococcus aureus; set-up: Kirby-Bauer Disc Diffusion Test Results: unit not given here; details: for Kirby-Bauer Disc Diffusion Test Results: Table 5, beta-lactamase producing strain; for zone of growth inhibition, average diameter: Table 1, 6-mm disks, 20 μg test compound, 24 h, triplicate; for zone of inhibition at 20 µg/disc: Staphylococcus aureus, MRSA
Method in brief: as §2

MRSA USF656 = assay: Kirby-Bauer agar disk diffusion; format: cell-based, Staphylococcus aureus; set-up: Kirby-Bauer Disc Diffusion Test Results: unit not given here; details: for Kirby-Bauer Disc Diffusion Test Results: Table 5, beta-lactamase producing strain; for zone of growth inhibition, average diameter: Table 1, 6-mm disks, 20 μg test compound, 24 h, triplicate; for zone of inhibition at 20 µg/disc: Staphylococcus aureus, MRSA
Method in brief: as §2

MRSA USF658 = assay: Kirby-Bauer agar disk diffusion; format: cell-based, Staphylococcus aureus; set-up: Kirby-Bauer Disc Diffusion Test Results: unit not given here; details: for Kirby-Bauer Disc Diffusion Test Results: Table 5, beta-lactamase producing strain; for zone of growth inhibition, average diameter: Table 1, 6-mm disks, 20 μg test compound, 24 h, triplicate; for zone of inhibition at 20 µg/disc: Staphylococcus aureus, MRSA
Method in brief: as §2

MRSA USF652 = assay: Kirby-Bauer agar disk diffusion; format: cell-based, Staphylococcus aureus; set-up: Kirby-Bauer Disc Diffusion Test Results: unit not given here; details: for Kirby-Bauer Disc Diffusion Test Results: Table 5, beta-lactamase producing strain; for zone of growth inhibition, average diameter: Table 1, 6-mm disks, 20 μg test compound, 24 h, triplicate; for zone of inhibition at 20 µg/disc: Staphylococcus aureus, MRSA
Method in brief: as §2

MRSA USF653 = assay: Kirby-Bauer agar disk diffusion; format: cell-based, Staphylococcus aureus; set-up: Kirby-Bauer Disc Diffusion Test Results: unit not given here; details: for Kirby-Bauer Disc Diffusion Test Results: Table 5, beta-lactamase producing strain; for zone of growth inhibition, average diameter: Table 1, 6-mm disks, 20 μg test compound, 24 h, triplicate; for zone of inhibition at 20 µg/disc: Staphylococcus aureus, MRSA
Method in brief: as §2

MRSA USF657 = assay: Kirby-Bauer agar disk diffusion; format: cell-based, Staphylococcus aureus; set-up: Kirby-Bauer Disc Diffusion Test Results: unit not given here; details: for Kirby-Bauer Disc Diffusion Test Results: Table 5, beta-lactamase producing strain; for zone of growth inhibition, average diameter: Table 1, 6-mm disks, 20 μg test compound, 24 h, triplicate; for zone of inhibition at 20 µg/disc: Staphylococcus aureus, MRSA
Method in brief: as §2

Staph aureus 525 = assay: Kirby-Bauer agar disk diffusion; format: cell-based, Staphylococcus aureus; details: Table 5
Staphylococcus aureus = assay: MIC by agar dilution; format: cell-based
Text: (§3) However, the N-alkylthio substituent is required, since reduction to the N—H analogue completely destroys the biological activity.

Micrococcus luteus = assay: Kirby-Bauer agar disk diffusion; format: cell-based; details: Table 1; 6-mm disks, 20 μg test compound, 24 h, triplicate
Protocol: (§4) In this study, a selection of N-methylthio-substituted β-lactams are examined for antimicrobial activity by the Kirby-Bauer disk diffusion method on agar plates. A variety of common Gram-positive and Gram-negative bacteria are tested, including clinical isolates of methicillin-resistant Staphylococcus aureus (MRSA).
(§5) Compound susceptibility measurements are obtained from agar disk diffusion experiments using 6-mm air-dried disks impregnated with 20 μg of the test compound. The values correspond to the average diameters in mm (triplicate experiments) for the zone of growth inhibition observed after 24 h. Staphylococcus aureus (ATCC 25923) and β-lactamase-producing strains of methicillin-resistant Staphylococcus aureus (labeled as MRSA USF652-659) are obtained from Lakeland Regional Medical Center, Lakeland, Fla. Staphylococcus epidermidis, Staphylococcus simulans, Staphylococcus simulans, and Microcossus luteus are clinical isolates from University of South Florida Medical Clinic. Nieserria gonnorhoeae (β-lactamase positive) is obtained from the Tampa Branch State Laboratory. PenG is penicillin G (potassium salt). Table 1 provides the zones of growth inhibition that are observed after 24 hours using the lactams of FIGS. 1A-1I (designated A-I, respectively).
(§6) Of particular interest is the ability of these compounds to retain their effectiveness against penicillin-resistant strains of Staphylococcus aureus, a dangerous hospital-borne pathogen which is becoming difficult to treat with conventional antibiotic therapy. The lactams were screened for antibacterial activity by disk diffusion on agar plates, and the resulting zones of bacterial growth inhibition measured (see Table 3; each lactam is designated by Figure number).
(§7) Table 3: Growth inhibition zones obtained from agar disk diffusion experiments using 6-mm air-dried disks impregnated with 20 μg of the test compound. The values correspond to the average diameters in mm for the zone of growth inhibition observed after 24 hours. Staphylococcus aureus and β-lactamase-producing strains of methicillin-resistant Staphylococcus aureus (labeled MRSA USF652-659) are obtained from a clinical testing laboratory at Lakeland Regional Medical Center, Lakeland, Fla.

[2] = test system: Staphylococcus epidermidis; assay: Kirby-Bauer agar disk diffusion; format: cell-based; details: Table 1; 6-mm disks, 20 μg test compound, 24 h, triplicate
Protocol: as §4, §5, §6, §7

[3] = test system: Staphylococcus aureus (ATCC 25923); assay: Kirby-Bauer agar disk diffusion; format: cell-based; details: Table 1; 6-mm disks, 20 μg test compound, 24 h, triplicate
Protocol: as §4, §5, §6, §7

N. gonorrhoeae = assay: Kirby-Bauer agar disk diffusion; format: cell-based, Neisseria gonorrhoeae; details: Table 1; 6-mm disks, 20 μg test compound, 24 h, triplicate; β-lactamase positive
Protocol: as §4, §5

[4] = test system: S. saprophyticus (ATCC 3552); assay: Kirby-Bauer agar disk diffusion; format: cell-based, Staphylococcus saprophyticus; details: Table 1; 6-mm disks, 20 μg test compound, 24 h, triplicate
Protocol: as §4, §5, §6, §7

MRSA strains = assay: MIC by agar dilution; format: cell-based, Staphylococcus aureus
Text: as §3

[5] = test system: bacterial uptake of ^3H-uridine and ^3H-leucine; assay: pulse radiolabeling experiments; format: cell-based; details: at low (MIC) levels
Text: as §1

S. simulans (ATCC 11631) = assay: Kirby-Bauer agar disk diffusion; format: cell-based, Staphylococcus simulans; details: Table 1; 6-mm disks, 20 μg test compound, 24 h, triplicate
Protocol: as §4, §5, §6, §7

[6] = read-out: The Zone of Inhibition

SMILES | cells Gram-stained purple (MRSA cells) | Kirby-Bauer Disc Diffusion Test Results (MRSA USF655) | Kirby-Bauer Disc Diffusion Test Results (MRSA USF659) | Kirby-Bauer Disc Diffusion Test Results (MRSA USF654) | Kirby-Bauer Disc Diffusion Test Results (MRSA USF656) | Kirby-Bauer Disc Diffusion Test Results (MRSA USF658) | Kirby-Bauer Disc Diffusion Test Results (MRSA USF652) | Kirby-Bauer Disc Diffusion Test Results (MRSA USF653) | Kirby-Bauer Disc Diffusion Test Results (MRSA USF657) | coloration upon Gram staining (MRSA cells) | zone of growth inhibition, average diameter (MRSA USF655) [mm] | zone of growth inhibition, average diameter (MRSA USF659) [mm] | zone of growth inhibition, average diameter (MRSA USF654) [mm] | zone of growth inhibition, average diameter (MRSA USF656) [mm] | zone of growth inhibition, average diameter (MRSA USF658) [mm] | zone of growth inhibition, average diameter (MRSA USF652) [mm] | zone of growth inhibition, average diameter (MRSA USF653) [mm] | zone of growth inhibition, average diameter (MRSA USF657) [mm] | zone of growth inhibition, average diameter (Micrococcus luteus) [mm] | zone of growth inhibition, average diameter [2] [mm] | further results
COC1C(=O)N(SC)C1c1ccccc1Cl (racemic) [FIG. 11F] | 100% | 26 | 27 | 26 | 26 | 28 | 30 | 30 | 28 |  |  |  |  |  |  |  |  |  |  |  | cell counts ([1]; Example 5, cultures grown in the presence of the lactam): Highly reduced cell counts; alterations in the shapes or sizes of remaining cells ([1]; Example 5, light and scanning electron microscopy, range of concentrations and growth conditions): in no cases have we found alterations in the shapes or sizes; Kirby-Bauer Disc Diffusion Test Results (Staph aureus 525): 26
COC1C(=O)N(SC)C1c1ccccc1Cl (racemic) [Lactam D] |  |  |  |  |  |  |  |  |  | uniform purple coloration | 26 | 24 | 26 | 28 | 27 | 30 | 30 | 28 | 24 | 29 | cell morphology ([1]; listed as FIG. 1D): unaffected; also recorded: no visible damage or morphological deformities; Minimum inhibitory concentration (MIC) (Staphylococcus aureus): 15 µg/mL (≈ 58.2 µM); zone of growth inhibition, average diameter [3]: 26 mm; zone of growth inhibition, average diameter (N. gonorrhoeae): 19 mm; zone of growth inhibition, average diameter [4]: 20 mm; Minimum inhibitory concentration (MIC) (MRSA strains): 5 to 10 µg/mL; bacterial uptake of ^3H-leucine [5]: blocks; bacterial uptake of ^3H-uridine [5]: blocks; zone of growth inhibition, average diameter (S. simulans (ATCC 11631)): 16 mm
COC1C(=O)N(SC)C1c1cccs1 (racemic) [Lactam I] |  |  |  |  |  |  |  |  |  |  | 29 | 24 | 27 | 28 | 26 | 28 | 28 | 26 | 15 | 28 | zone of growth inhibition, average diameter [3]: 27 mm; zone of growth inhibition, average diameter (N. gonorrhoeae): 11 mm; zone of growth inhibition, average diameter [4]: 20 mm; zone of growth inhibition, average diameter (S. simulans (ATCC 11631)): 0 mm
CN[C@H](CC(C)C)C(=O)N[C@H]1C(=O)N[C@@H](CC(N)=O)C(=O)N[C@H]2C(=O)N[C@H]3C(=O)N[C@H](C(=O)N[C@H](C(=O)O)c4cc(O)cc(O)c4-c4cc3ccc4O)[C@H](O)c3ccc(c(Cl)c3)Oc3cc2cc(c3O[C@@H]2O[C@H](CO)[C@@H](O)[C@H](O)[C@H]2O[C@H]2C[C@](C)(N)[C@H](O)[C@H](C)O2)Oc2ccc(cc2Cl)[C@H]1O [Vancomycin, reference compound] | about 30% | 19 | 18 | 19 | 21 | 18 | 19 | 18 | 18 | pink coloration |  |  |  |  |  |  |  |  |  |  | cell morphology [1]: wrinkled, deformed, or even sheared; zone of inhibition at 20 µg/disc (MRSA USF655; [6]): 19 mm; zone of inhibition at 20 µg/disc (MRSA USF655; read-out: Zones of Inhibition): 19 mm; zone of inhibition at 20 µg/disc (MRSA USF659; [6]): 20 mm; zone of inhibition at 20 µg/disc (MRSA USF659; read-out: Zones of Inhibition): 18 mm; zone of inhibition at 20 µg/disc (MRSA USF654; [6]): 20 mm; zone of inhibition at 20 µg/disc (MRSA USF654; read-out: Zones of Inhibition): 19 mm; zone of inhibition at 20 µg/disc (MRSA USF656; [6]): 20 mm; zone of inhibition at 20 µg/disc (MRSA USF656; read-out: Zones of Inhibition): 21 mm; zone of inhibition at 20 µg/disc (MRSA USF658; [6]): 20 mm; zone of inhibition at 20 µg/disc (MRSA USF658; read-out: Zones of Inhibition): 18 mm; zone of inhibition at 20 µg/disc (MRSA USF652; [6]): 23 mm; zone of inhibition at 20 µg/disc (MRSA USF652; read-out: Zones of Inhibition): 19 mm; zone of inhibition at 20 µg/disc (MRSA USF653; [6]): 20 mm; zone of inhibition at 20 µg/disc (MRSA USF653; read-out: Zones of Inhibition): 18 mm; zone of inhibition at 20 µg/disc (MRSA USF657; [6]): 21 mm; zone of inhibition at 20 µg/disc (MRSA USF657; read-out: Zones of Inhibition): 18 mm
